This passage reports GI50 and TGI results from PubChem BioAssay (NCI).

“And” between values parts separate entries of the source, which are not always exact repeats. Identical values can stand only once.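 Growth conditions: 96-well plates. Treatment: test compound, 48 hours, 5 concentrations. Analysis: linear interpolation between bracketing concentrations; unreached endpoints set to highest concentration. The concentration for 50% growth inhibition is given as GI50. TGI marks complete inhibition of growth.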 Some results are limits rather than exact numbers.

Test systems include IGROV1 ovarian; K-562 leukemia; NCI-H23 lung; NCI-H522 lung; SF-539 CNS; SK-MEL-2 melanoma; SNB-19 CNS; UACC-62 melanoma; UO-31 renal; SW-620 colon.
Assay in all cases: growth of human tumour cells (NCI), 48 h

Take `O=C1c2cccnc2-c2nc(/C=C/c3ccccc3)cc3c2c1nc1ccccc13`: the GI50 with IGROV1 ovarian was 1590 nM; with K-562 leukemia it was 1430 nM; in the assay on NCI-H23 lung, 1600 nM; with NCI-H522 lung, 1760 nM; with SF-539 CNS, 3.02 µM; in the assay on SK-MEL-2 melanoma, 2140 nM. Moreover, the figures for the GI50 in the assay with SNB-19 CNS, in the assay on UACC-62 melanoma and in the assay on UO-31 renal were 2.51 µM, 1720 nM and 2010 nM, respectively. The TGI turned out to be 4.44 µM in the assay with IGROV1 ovarian; 9.1 µM in the assay with K-562 leukemia; 3.58 µM with NCI-H23 lung; 3.47 µM in the assay on NCI-H522 lung; 7.77 µM in the assay on SF-539 CNS; 4.99 µM with SK-MEL-2 melanoma. For the same compound, the TGI amounted to 6.13 µM with SNB-19 CNS, 3.28 µM in the assay with UACC-62 melanoma and 6.5 µM with UO-31 renal.
As for `CO[C@H]1[C@H](O)[C@H](O[C@H]2CC[C@@]3(C)[C@H](CC[C@@H]4[C@@H]3CC[C@]3(C)[C@@H](C5=CC(=O)OC5)CC[C@]43O)C2)O[C@@H](C)[C@@H]1O`, the GI50 with K-562 leukemia was 0.62 nM. Further, the TGI is 0.0647 µM in the assay on K-562 leukemia; 0.00127 µM with NCI-H23 lung; 0.000282 µM with NCI-H522 lung; 0.00111 µM in the assay on SF-539 CNS; 0.00476 µM and < 0.0175 µM with SK-MEL-2 melanoma; 0.00324 µM in the assay with SNB-19 CNS. For the same compound, the TGI with SW-620 colon is 0.00341 µM; with UACC-62 melanoma, 0.00312 µM and < 0.0104 µM; in the assay on UO-31 renal it was 0.00201 µM.
In the case of `Cc1ccc(S(=O)(=O)N2CCC3(C(/C=C/c4ccccc4)=Nc4ccccc43)C2c2ccccc2)cc1` (stereo not drawn), the TGI in the assay on IGROV1 ovarian was 24.6 µM; with K-562 leukemia, over 100 µM; in the assay with NCI-H23 lung, over 100 µM; in the assay on NCI-H522 lung, over 100 µM; with SF-539 CNS, over 100 µM; in the assay with SNB-19 CNS it was over 100 µM. Also, the TGI with SW-620 colon, in the assay on UACC-62 melanoma and with UO-31 renal was over 100 µM throughout.
`N#C/C(=C/c1cccnc1)C(=O)c1ccccc1`: the TGI in the assay on K-562 leukemia, in the assay with NCI-H23 lung, in the assay on NCI-H522 lung, in the assay with SF-539 CNS, in the assay with SK-MEL-2 melanoma and in the assay with SNB-19 CNS was over 100 µM throughout. The TGI in the assay with SW-620 colon, with UACC-62 melanoma and in the assay with UO-31 renal was over 100 µM in each case.
Regarding `Cc1cc(N(CCC#N)CCC#N)ccc1/C=C(\NC(=O)/C=C/c1ccccc1)NC(=O)Nc1ccc(Cl)cc1`, the TGI with IGROV1 ovarian, in the assay on K-562 leukemia, in the assay on NCI-H23 lung, with SF-539 CNS, in the assay with SK-MEL-2 melanoma and in the assay on SNB-19 CNS was over 100 µM in each case. Besides, the TGI in the assay on SW-620 colon, in the assay with UACC-62 melanoma and in the assay on UO-31 renal was over 100 µM in each case.
For `Cc1ccc(S(=O)(=O)N2CCSCCSCCN(S(=O)(=O)c3ccc(C)cc3)CCN(S(=O)(=O)c3ccc(C)cc3)CC2)cc1`, the TGI in the assay with IGROV1 ovarian, in the assay on K-562 leukemia, in the assay on NCI-H23 lung, in the assay with NCI-H522 lung, with SF-539 CNS and in the assay with SK-MEL-2 melanoma was over 100 µM in each case. The TGI with SNB-19 CNS, in the assay with SW-620 colon and in the assay with UO-31 renal was over 100 µM in each case.
For `Cc1cc(Cc2cc(C)c(NC(=O)C(=O)C3C(=O)NC(=S)NC3=O)c(C(C)C)c2)cc(C(C)C)c1NC(=O)C(=O)C1C(=O)NC(=S)NC1=O`, the TGI in the assay on IGROV1 ovarian, with K-562 leukemia, in the assay on NCI-H23 lung, in the assay with NCI-H522 lung, with SNB-19 CNS and in the assay with SW-620 colon was over 100 µM throughout. The TGI with UACC-62 melanoma and in the assay on UO-31 renal was over 100 µM each time.
For the compound `C#CCN1CCN(C(=S)N/N=C(\C)c2ccccn2)CC1`, the GI50 in the assay with IGROV1 ovarian is 3.03 nM; in the assay on K-562 leukemia it was 3.34 nM; with NCI-H23 lung, 5.67 nM; in the assay on NCI-H522 lung it was under 29.2 nM; with SK-MEL-2 melanoma, 2400 nM; with SNB-19 CNS, 4.53 µM. The GI50 in the assay with UO-31 renal is 2610 nM. In addition, the TGI is 3.3 µM in the assay with IGROV1 ovarian; 14 µM with K-562 leukemia; 3.99 µM with NCI-H23 lung; 6.52 µM and 2.27 µM in the assay on NCI-H522 lung; 5.78 µM and 4.56 µM in the assay on SF-539 CNS; 5.41 µM and 4.64 µM in the assay with SK-MEL-2 melanoma. In addition, the TGI is 17.2 µM with SNB-19 CNS; 7.3 µM and 4.27 µM in the assay on SW-620 colon; 4.56 µM and 3.77 µM with UO-31 renal.
`CC12O[C@H](c3ccccc3)[C@H](c3ccccc3)N1C(=O)C1(C(=O)OCc3ccccc3)CC12` (stereo partly drawn): the TGI with IGROV1 ovarian, in the assay with K-562 leukemia, in the assay with NCI-H522 lung, in the assay with SK-MEL-2 melanoma, in the assay with SNB-19 CNS and in the assay with SW-620 colon was over 100 µM in each case. The TGI in the assay on UACC-62 melanoma and in the assay with UO-31 renal was over 100 µM throughout.
With `CC1CCCC(C(O)CC2CC(=O)N(c3ccccc3)C(=O)C2)C1=O` (stereo not drawn), the TGI in the assay with IGROV1 ovarian, in the assay with K-562 leukemia, in the assay with NCI-H23 lung, in the assay with NCI-H522 lung, with SF-539 CNS and in the assay on SNB-19 CNS was over 100 µM throughout. Moreover, the TGI in the assay on SW-620 colon, in the assay with UACC-62 melanoma and with UO-31 renal was over 100 µM throughout.
Consider `Cc1ccc(-c2ccc(Nc3c4ccccc4nc4ccccc34)cc2)cn1`, for which the TGI in the assay with IGROV1 ovarian is 18.4 µM; with K-562 leukemia, 10.7 µM; with NCI-H23 lung, 88.7 µM; in the assay on SF-539 CNS it was 21.1 µM; with SK-MEL-2 melanoma, 3.63 µM; in the assay on SNB-19 CNS, over 100 µM. The TGI in the assay on SW-620 colon was found to be 14.9 µM; in the assay with UACC-62 melanoma, 11.5 µM; with UO-31 renal it was 13.2 µM.
`CCCCn1c2c(c3ccccc3c1=O)C(=O)c1ccccc1-2`: the TGI with IGROV1 ovarian, with K-562 leukemia, in the assay with NCI-H23 lung, with NCI-H522 lung, in the assay on SF-539 CNS and in the assay with SK-MEL-2 melanoma was over 100 µM throughout. Further, the TGI in the assay with SW-620 colon, in the assay with UACC-62 melanoma and in the assay on UO-31 renal was over 100 µM each time.
As for `CN(C)c1ccc(/C=C2\CNC/C(=C\c3ccc(N(C)C)cc3)C2=O)cc1`, the TGI was 97.1 µM in the assay with IGROV1 ovarian; over 100 µM with K-562 leukemia; over 100 µM in the assay on NCI-H23 lung; over 100 µM in the assay with SF-539 CNS; over 100 µM with UACC-62 melanoma; over 100 µM with UO-31 renal.
Consider `OCCSCCCSCCO`, for which the TGI in the assay with IGROV1 ovarian, with K-562 leukemia, in the assay on NCI-H23 lung, in the assay with NCI-H522 lung, with SF-539 CNS and in the assay with SNB-19 CNS was over 100 µM throughout. Moreover, the TGI in the assay with SW-620 colon, with UACC-62 melanoma and in the assay with UO-31 renal was over 100 µM throughout.
